Results from PMC6150240, “Synthesis and 2D-QSAR Study of Active Benzofuran-Based Vasodilators” (Molecules : A Journal of Synthetic Chemistry and Natural …, 2017).
pIC50: −log10 of the molar value. Read-outs that look alike come from different tables or passages of the source.

What was measured:
[1] = tested on: isolated thoracic aortic rings of male Wistar rats; experiment: Vasodilation activity screening: isolated thoracic aortic rings pre-contracted with norepinephrine hydrochloride; details: Rattus norvegicus
Procedure: The vasodilation activity screening procedures were carried out according to the standard reported techniques by testing the effects of the synthesized 2-alkoxy-4-aryl-6-(benzofuran-2-yl)-3-pyridinecarbonitriles 4a–x on isolated thoracic aortic rings of male Wistar rats (250–350 g). After light ether anesthesia, the rats were sacrificed by cervical dislocation. The aortae were immediately excised, freed of extraneous tissues and prepared for isometric tension recording. Aorta was cut into (3–5 mm width) rings and each ring was placed in a vertical chamber “10 mL jacketed automatic multi-chamber organ bath system (Model no. ML870B6/C, Panlab, Spain)” filled with Krebs solution composed of (in mM): NaCl, 118.0; KCl, 4.7; NaHCO3, 25.0; CaCl2, 1.8; NaH2PO4, 1.2; MgSO4, 1.2; glucose, 11.0 and oxygenated with carbogen gas (95% O2/5% CO2) at 37 ± 0.5 °C. Each aortic ring was mounted between two stainless steel hooks passed through its lumen. The lower hook was fixed between two plates, while the upper one was attached to a force displacement transducer (Model no. MLT0201, Panlab, Spain) connected to an amplifier (PowerLab, AD Instruments Pty., Ltd. Victoria, Australia), which is connected to a computer. The chart for Windows (v 3.4) software was used to record and elaborate data. Preparations were stabilized under 2 g resting tension during 2 h and then the contracture response to norepinephrine hydrochloride (10^−6 M) was measured before and after exposure to increasing concentrations of the tested synthesized compounds. The tested compounds were dissolved in dimethylsulfoxide (DMSO) as stock solution (10 mL of 0.005 M). […] This experiment was carried out in according to recommendations in the Guide for the Care and Use of Laboratory Animals of the National Institutes of Health (NIH publication No. 85–23, revised 1996) and under regulations of the Animal Care and Use of National Research Centre in Egypt.

[2] = norepinephrine hydrochloride 10^−6 M, three replicates, read-out: Potency (IC50), concentration necessary for 50% reduction of maximal norepinephrine hydrochloride induced contracture
[3] = norepinephrine hydrochloride induced contracture, observed values as used in the QSAR, read-out: Observed IC50

| Structure (SMILES) | pIC50 [1, 2] | pIC50 [1, 3] | melting point |
| --- | --- | --- | --- |
| CCOc1nc(-c2ccccc2)cc(-c2cn(-c3ccccc3)nc2-c2cc3ccccc3o2)c1C#N [Compound 4b, 4-(3-(Benzofuran-2-yl)-1-phenyl-1H-pyrazol-4-yl)-2-ethoxy-6-phenylpyridine-3-carbonitrile] | 3.46 | 3.46 | 186 to 188 °C |
| CCOc1nc(-c2ccc(Cl)cc2)cc(-c2cn(-c3ccccc3)nc2-c2cc3ccccc3o2)c1C#N [Compound 4d, 4-(3-(Benzofuran-2-yl)-1-phenyl-1H-pyrazol-4-yl)-6-(4-chlorophenyl)-2-ethoxypyridine-3-carbonitrile] | 3.40 | 3.40 | 199 to 201 °C |
| CCOc1nc(-c2ccc(F)cc2)cc(-c2cn(-c3ccccc3)nc2-c2cc3ccccc3o2)c1C#N [Compound 4h, 4-(3-(Benzofuran-2-yl)-1-phenyl-1H-pyrazol-4-yl)-2-ethoxy-6-(4-fluorophenyl)pyridine-3-carbonitrile] | 3.48 | 3.48 | 204 to 206 °C |
| COc1nc(-c2ccc(C)cc2)cc(-c2cn(-c3ccccc3)nc2-c2cc3ccccc3o2)c1C#N [Compound 4i, 4-(3-(Benzofuran-2-yl)-1-phenyl-1H-pyrazol-4-yl)-2-methoxy-6-p-tolylpyridine-3-carbonitrile] | 3.48 | 3.48 | 258 to 260 °C |
| CCOc1nc(-c2ccc(C)cc2)cc(-c2cn(-c3ccccc3)nc2-c2cc3ccccc3o2)c1C#N [Compound 4j, 4-(3-(Benzofuran-2-yl)-1-phenyl-1H-pyrazol-4-yl)-2-ethoxy-6-p-tolylpyridine-3-carbonitrile] | 3.34 | 3.34 | 202 to 204 °C |
| COc1ccc(-c2cc(-c3cn(-c4ccccc4)nc3-c3cc4ccccc4o3)c(C#N)c(OC)n2)cc1 [Compound 4k, 4-(3-(Benzofuran-2-yl)-1-phenyl-1H-pyrazol-4-yl)-2-methoxy-6-(4-methoxyphenyl)pyridine-3-carbonitrile] | 3.37 | 3.49 | 256 to 258 °C |
| CCOc1nc(-c2ccc3c(c2)CCCC3)cc(-c2cn(-c3ccccc3)nc2-c2cc3ccccc3o2)c1C#N [Compound 4n, 4-(3-(Benzofuran-2-yl)-1-phenyl-1H-pyrazol-4-yl)-2-ethoxy-6-(1,2,3,4-tetrahydronaphthalen-6-yl)pyridine-3-carbonitrile] | 3.47 | 3.47 | 213 to 215 °C |
| COc1nc(-c2ccc[nH]2)cc(-c2cn(-c3ccccc3)nc2-c2cc3ccccc3o2)c1C#N [Compound 4o, 4-(3-(Benzofuran-2-yl)-1-phenyl-1H-pyrazol-4-yl)-2-methoxy-6-(1H-pyrrol-2-yl)pyridine-3-carbonitrile] | 3.45 |  | 187 to 189 °C |
| CCOc1nc(-c2ccc[nH]2)cc(-c2cn(-c3ccccc3)nc2-c2cc3ccccc3o2)c1C#N [Compound 4p, 4-(3-(Benzofuran-2-yl)-1-phenyl-1H-pyrazol-4-yl)-2-ethoxy-6-(1H-pyrrol-2-yl)pyridine-3-carbonitrile] | 3.40 | 3.53 | 208 to 210 °C |
| COc1nc(-c2ccco2)cc(-c2cn(-c3ccccc3)nc2-c2cc3ccccc3o2)c1C#N [Compound 4q, 4-(3-(Benzofuran-2-yl)-1-phenyl-1H-pyrazol-4-yl)-6-(furan-2-yl)-2-methoxypyridine-3-carbonitrile] | 3.49 | 3.49 | 246 to 248 °C |
| CCOc1nc(-c2cccs2)cc(-c2cn(-c3ccccc3)nc2-c2cc3ccccc3o2)c1C#N [Compound 4t, 4-(3-(Benzofuran-2-yl)-1-phenyl-1H-pyrazol-4-yl)-2-ethoxy-6-(thiophen-2-yl)pyridine-3-carbonitrile] | 3.53 | 3.40 |  |
| COc1nc(-c2ccccn2)cc(-c2cn(-c3ccccc3)nc2-c2cc3ccccc3o2)c1C#N [Compound 4u, 4-(3-(Benzofuran-2-yl)-1-phenyl-1H-pyrazol-4-yl)-2-methoxy-6-(pyridin-2-yl)pyridine-3-carbonitrile] | 3.48 | 3.48 | 275 to 277 °C |
| CCOc1nc(-c2ccccn2)cc(-c2cn(-c3ccccc3)nc2-c2cc3ccccc3o2)c1C#N [Compound 4v, 4-(3-(Benzofuran-2-yl)-1-phenyl-1H-pyrazol-4-yl)-2-ethoxy-6-(pyridin-2-yl)pyridine-3-carbonitrile] | 3.43 | 3.43 | 204 to 206 °C |
| CCOc1nc(-c2nc3ccccc3n2C)cc(-c2cn(-c3ccccc3)nc2-c2cc3ccccc3o2)c1C#N [Compound 4x, 4-(3-(Benzofuran-2-yl)-1-phenyl-1H-pyrazol-4-yl)-2-ethoxy-6-(1-methyl-1H-benzo[d]-imidazol-2-yl)pyridine-3-carbonitrile] | 3.52 | 3.52 |  |

Further compounds by rising pIC50 [1, 2], results first:

| pIC50 [1, 2] | pIC50 [1, 3] | melting point | Structure (SMILES) |
| --- | --- | --- | --- |
| 3.53 | 3.53 |  | COc1nc(-c2ccc(Cl)cc2)cc(-c2cn(-c3ccccc3)nc2-c2cc3ccccc3o2)c1C#N [Compound 4c, 4-(3-(Benzofuran-2-yl)-1-phenyl-1H-pyrazol-4-yl)-6-(4-chlorophenyl)-2-methoxypyridine-3-carbonitrile] |
| 3.54 | 3.54 |  | CCOc1nc(-c2ccc(OC)cc2)cc(-c2cn(-c3ccccc3)nc2-c2cc3ccccc3o2)c1C#N [Compound 4l, 4-(3-(Benzofuran-2-yl)-1-phenyl-1H-pyrazol-4-yl)-2-ethoxy-6-(4-methoxyphenyl)pyridine-3-carbonitrile] |
| 3.54 | 3.54 |  | COc1nc(-c2ccc3c(c2)CCCC3)cc(-c2cn(-c3ccccc3)nc2-c2cc3ccccc3o2)c1C#N [Compound 4m, 4-(3-(Benzofuran-2-yl)-1-phenyl-1H-pyrazol-4-yl)-6-(1,2,3,4-tetrahydronaphthalen-6-yl)-2-methoxypyridine-3-carbonitrile] |
| 3.55 | 3.55 |  | COc1nc(-c2ccccc2)cc(-c2cn(-c3ccccc3)nc2-c2cc3ccccc3o2)c1C#N [Compound 4a, 4-(3-(Benzofuran-2-yl)-1-phenyl-1H-pyrazol-4-yl)-2-methoxy-6-phenylpyridine-3-carbonitrile] |
| 3.56 | 3.56 |  | COc1nc(-c2ccc(F)cc2)cc(-c2cn(-c3ccccc3)nc2-c2cc3ccccc3o2)c1C#N [Compound 4g, 4-(3-(benzofuran-2-yl)-1-phenyl-1H-pyrazol-4-yl)-6-(4-fluorophenyl)-2-methoxypyridine-3-carbonitrile] |
| 3.57 |  |  | COc1nc(-c2cccs2)cc(-c2cn(-c3ccccc3)nc2-c2cc3ccccc3o2)c1C#N [Compound 4s, 4-(3-(Benzofuran-2-yl)-1-phenyl-1H-pyrazol-4-yl)-2-methoxy-6-(thiophen-2-yl)pyridine-3-carbonitrile] |
| 3.57 | 3.57 |  | CCOc1nc(-c2ccc(Br)cc2)cc(-c2cn(-c3ccccc3)nc2-c2cc3ccccc3o2)c1C#N [Compound 4f, 4-(3-(Benzofuran-2-yl)-1-phenyl-1H-pyrazol-4-yl)-6-(4-bromophenyl)-2-ethoxypyridine-3-carbonitrile] |
| 3.60 | 3.60 |  | CCOc1nc(-c2ccco2)cc(-c2cn(-c3ccccc3)nc2-c2cc3ccccc3o2)c1C#N [Compound 4r, 4-(3-(Benzofuran-2-yl)-1-phenyl-1H-pyrazol-4-yl)-2-ethoxy-6-(furan-2-yl)pyridine-3-carbonitrile] |
| 3.60 | 3.60 |  | COc1nc(-c2ccc(Br)cc2)cc(-c2cn(-c3ccccc3)nc2-c2cc3ccccc3o2)c1C#N [Compound 4e, 4-(3-(Benzofuran-2-yl)-1-phenyl-1H-pyrazol-4-yl)-6-(4-bromophenyl)-2-methoxypyridine-3-carbonitrile] |
| 3.65 | 3.65 |  | COc1nc(-c2nc3ccccc3n2C)cc(-c2cn(-c3ccccc3)nc2-c2cc3ccccc3o2)c1C#N [Compound 4w, 4-(3-(Benzofuran-2-yl)-1-phenyl-1H-pyrazol-4-yl)-2-methoxy-6-(1-methyl-1H-benzo[d]imidazole-2-yl)pyridine-3-carbonitrile] |
